# Bridge positions count the residues as written; N and C are the ends. Square brackets hold non-standard residues; d marks the D form. Peptide text beside a SMILES is read from it. * marks the point of attachment. Lauroyl = CCCCCCCCCCCC(=O)*; Dab = NCC[C@H](N)C(=O)O
# What was measured:
# in vivo = test: in vivo; set-up: species or system male CD-1 mice; conditions: for AUC0-∞ dcor. / Cmax dcor.: mouse
# Procedure: 2.7. Pharmacokinetic Study (PK)
# Pharmacokinetic study after intravenous (i.v.) and subcutaneous (s.c.) administration was performed for the compounds of Ex. 17, Ex. 20, Ex. 25, Ex. 26, Ex. 28, and Ex. 29. […] The compounds of Ex. 17, Ex. 25, Ex. 26, Ex. 28, and Ex. 29 were administered i.v. and s.c. as a cassette whereas for the compound of Ex. 20a single i.v. and s.c. administration was accomplished.
# 30 grams (±20%) male CD-1 mice obtained from Janvier, France, were used in the study testing the cassette compounds. The vehicle, phosphate buffered saline containing 5% DMSO, was added to give a final concentration of 0.5 mg/mL of the compounds (i.v. route and s.c. route). The volume was 2 mL/kg i.v. and 10 mL/kg s.c. and the cassette compounds were injected to give a final intravenous dose of 1 mg/kg and an subcutaneous dose of 5 mg/kg. Approximately 500 μL of blood were removed from the opened heart at predetermined time intervals (5, 15, 30 min and 1, 2, 4, 8 and 12 hours for the i.v. study and 5, 15, 30 min and 1, 2, 4, 8, 12 and 24 hours for the s.c. study) and added to heparinized tubes. Plasma was removed from pelleted cells upon centrifugation and frozen at −80° C. prior to HPLC-MS analysis. For the compound of Ex. 20 30 grams (±20%) male CD-1 mice obtained from Charles River Laboratories Deutschland GmbH were used. The vehicle, phosphate buffered saline, was added to give a final concentration of 0.2 mg/mL of the compound (i.v. route) and 1 mg/mL (s.c. route). The volume was 5 mL/kg i.v. and s.c. and the compound was injected to give a final intravenous dose of 1 mg/kg and an subcutaneous dose of 5 mg/kg. Approximately 300-400 μL of blood was removed under light isoflurane anesthesia by cardiac puncture at predetermined time intervals (5, 15, 30 min and 1, 2, 3, 4, 6, 12 hours for the i.v. study and 15, min and 1, 2, 4, 6, 8, 12 and 24 hours for the s.c. study) and added to heparinized tubes. Plasma was removed from pelleted cells upon centrifugation and frozen at −80° C. prior to HPLC-MS analysis.
# Preparation of the Plasma Calibration Samples
# “Blank” mouse plasma from untreated animals was used. Aliquots of plasma of 0.2 mL each were spiked with 50 ng of propranolol (Internal Standard, IS), (sample preparation by solid phase extraction on OASIS® HLB cartridges [Waters]) and with known amounts of Ex. 20 in order to obtain 9 plasma calibration samples in the range 10-5000 nM. The OASIS® HLB cartridges were conditioned with 1 mL of methanol and then with 1 mL of 1% NH3 in water. Samples were then diluted with 700 μL of 1% NH3 in water and loaded. The plate was washed with 1 mL of methanol/1% NH3 in water 5/95 (v/v). Elution was performed using 1 mL of 0.1% TFA in methanol.
# The plate containing eluates was introduced into the concentrator system and taken to dryness. The residues were dissolved in 100 μL of formic acid 0.1%/acetonitrile, 95/5 (v/v) and analysed in the HPLC/MS on a reverse phase analytical column (Jupiter C18, 50×2.0 mm, 5 μm, Phenomenex), using gradient elution (mobile phases A: 0.1% formic acid in water, B: acetonitrile; from 5% B to 100% B in 2 min.).
# Preparation of Plasma Samples
# Samples coming from animal treatments were pooled in order to obtain an appropriate volume for the extraction. If the total volume obtained was less than 0.2 mL the appropriate amount of “blank” mouse plasma was added in order to keep the matrix identical to the calibration curve. Samples were than spiked with IS and processed as described for the calibration curve.
# Pharmacokinetic Evaluation
# In order to perform PK analysis pooled plasma data (n=3 mice) was used. PK parameters were calculated by WinNonLin™ software version 5.2.1 (Pharsight—A Certara™ Company, Mountain View, Calif. 94041 USA) using non-compartmental analysis with a linear up/log down trapezoidal calculation method. For the terminal elimination phase at least 3 time points and a correlation coefficient greater than 0.85 was used. […]
# [1] = Plasma stability in human plasma; type: in vitro ADME; conditions: human plasma, 37° C.
# Procedure, shortened: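 Peptides (1 mM DMSO/H2O stock) were spiked into human or mouse plasma in triplicate and incubated at 37 °C, sampling from 0 to 1440 min. Samples were quenched in formic acid/acetonitrile and analysed by LC/MS MRM. Remaining percent of t=0 was calculated and T1/2 derived by trend fitting.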
smiles,measurement,setting,value
CCCCCCCCCCCC(=O)NCCCC[C@@H]1NC(=O)[C@H](Cc2ccc(O)cc2)NC(=O)[C@@H]2CSSC[C@H](NC(=O)[C@H](C)NC(=O)[C@H](Cc3c[nH]cn3)NC(=O)[C@H](Cc3ccc(O)cc3)NC(=O)[C@@H]3CCCN3C(=O)[C@H]3CCCN3C(=O)[C@H](CCCCN)NC1=O)C(=O)N[C@@H](CCCNC(=N)N)C(=O)N[C@@H](C)C(=O)N1CCC[C@@H]1C(=O)N[C@@H](CCN)C(=O)N[C@@H](CCCNC(=N)N)C(=O)N[C@@H](Cc1ccc(O)cc1)C(=O)N2 [Ex. 17] (cyclo(YHACRA[dP][Dab]RYCYK(Lauroyl)K[dP]P); disulfide 4-11),bioavailability,"in vivo; male, CD-1, mouse",114%
same,AUC(0-inf),"in vivo; male, CD-1, mouse, iv, 1 mg/kg",2950 ng·h/mL
same,Cmax,"in vivo; male, CD-1, mouse, iv, 1 mg/kg",2640 ng/mL
same,Tmax,"in vivo; male, CD-1, mouse, iv, 1 mg/kg",0.1 h
same,half-life,"in vivo; male, CD-1, mouse, iv, 1 mg/kg",2 h
same,level at 0.083 h,"in vivo; male, CD-1, mouse, iv, 1 mg/kg",2640 ng/mL
same,level at 0.25 h,"in vivo; male, CD-1, mouse, iv, 1 mg/kg",2030 ng/mL
same,level at 0.5 h,"in vivo; male, CD-1, mouse, iv, 1 mg/kg",1560 ng/mL
same,level at 1 h,"in vivo; male, CD-1, mouse, iv, 1 mg/kg",1290 ng/mL
same,level at 2 h,"in vivo; male, CD-1, mouse, iv, 1 mg/kg",178 ng/mL
same,level at 4 h,"in vivo; male, CD-1, mouse, iv, 1 mg/kg",141 ng/mL
same,level at 8 h,"in vivo; male, CD-1, mouse, iv, 1 mg/kg",15 ng/mL
same,level at 12 h,"in vivo; male, CD-1, mouse, iv, 1 mg/kg",8 ng/mL
same,AUC(0-inf),"in vivo; male, CD-1, mouse, sc, 5 mg/kg",16800 ng·h/mL
same,Cmax,"in vivo; male, CD-1, mouse, sc, 5 mg/kg",1750 ng/mL
same,Tmax,"in vivo; male, CD-1, mouse, sc, 5 mg/kg",2 h
same,half-life,"in vivo; male, CD-1, mouse, sc, 5 mg/kg",4.3 h
same,level at 0.25 h,"in vivo; male, CD-1, mouse, sc, 5 mg/kg",140 ng/mL
same,level at 0.5 h,"in vivo; male, CD-1, mouse, sc, 5 mg/kg",450 ng/mL
same,level at 1 h,"in vivo; male, CD-1, mouse, sc, 5 mg/kg",874 ng/mL
same,level at 2 h,"in vivo; male, CD-1, mouse, sc, 5 mg/kg",1750 ng/mL
same,level at 4 h,"in vivo; male, CD-1, mouse, sc, 5 mg/kg",1410 ng/mL
same,level at 8 h,"in vivo; male, CD-1, mouse, sc, 5 mg/kg",1240 ng/mL
same,level at 12 h,"in vivo; male, CD-1, mouse, sc, 5 mg/kg",567 ng/mL
same,level at 24 h,"in vivo; male, CD-1, mouse, sc, 5 mg/kg",65 ng/mL
same,AUC0-∞ dcor.,"in vivo; iv, 1 mg/kg",2950.8 kg·ng·h/mg/mL
same,Cmax dcor.,"in vivo; iv, 1 mg/kg",2640.0 kg·ng/mg/mL
same,AUC0-∞ dcor.,"in vivo; sc, 5 mg/kg",3357.9 kg·ng·h/mg/mL
same,Cmax dcor.,"in vivo; sc, 5 mg/kg",350.6 kg·ng/mg/mL
same,"remaining at 24 h, 10 μM","[1]; 1440 min, read-out: human pl. cpd left at 1440 min",65%
same,human pl. T1/2,[1]; up to 1440 min,24 h

# Reference: US8716242B2, “β-hairpin peptidomimetics” (priority 2009, dated 2014)
